Test results: patent US20040142994A1, “Azolylcarbynol derivatives of aryl (or heteroaryl) for the treatment of respiratory diseases” (priority 2001, published 2004)

Tests used:
[1] = test system: cough induced by citric acid aerosol; assay: Antitussive activity against cough induced by citric acid aerosol in guinea-pig; assay type: in vivo; details: ip; for N° of Coughs ± SEM: 30 min before citric acid aerosol (7.5% p/v), 12.5 min observation, N=10; for SD-50: antitussive activity, citric acid aerosol
Source text: (§1) To do this, the antitussive activity has been studied in guinea-pigs, simultaneously studying the possible sedative effects at the doses used in this study. The method used was the one described by Boura [Boura A L A, Green A F, Saunders I A (1970), An antitussive test using guinea-pigs. Br. J. Pharmacol., 39, 225P], con modificaciones más recientes [Adcock J J, Schneider C, Smith T W (1988), Effects of codeine, morphine a novel opioid pentapeptide BW443C, on cough, nociception and ventilation in the unanaesthetized guinea-pig. Br. J. Pharmacol., 93:93-100; Clay T P, Thompson M A (1985), Irritant induced cough as a model of intrapulmonary airway reactivity. Lung, 163:183-191; Forsberg K, Karlsson J-A, Theodorsson E; Lundberg J M; Persson C G A (1988), Cough and bronchoconstriction mediated by capsaicin-sensitive sensory neurons in the guinea-pig. Pulm Pharmacol, 1: 33-39; Gallico L, Borghi A, Dalla Rosa C, Ceserani R, Tognella S (1994), Moguisteine: a novel peripheral non-narcotic antitussive drug. Br. J. Pharmacol,112:795-800].
The guinea-pigs (250-400 g) were deprived of water and food 30 minutes before any intervention. The guinea-pigs, neither ligated nor anaesthetised, were individually placed in a perspex box (20×12×14 cm.) and left for an accommodation period of 15 minutes. After this period, the animals were exposed to an aerosol of an aqueous solution of citric acid (7.5% p/v, 0.39M). This concentration of citric acid is the minimum concentration capable of producing the maximum number of coughs during the observation period (Forsberg et al., 1988). The aerosol was generated for 2.5 minutes using an ultrasound nebulizer (De Vilbiss, Ultraneb 99; mean particle size 0.9 μm, with a flow of 0.5 ml/min.). The observation period with the animals exposed to the nebulized citric acid in the box was 12.5 minutes (2.5 minutes of aerosol production, followed by an additional 10 minutes). During this period, the animals were observed continuously, the number of coughs was counted and the baseline value was taken as control. Only the guinea-pigs that coughed between 15 and 30 times during the observation period were selected for the study. On the day after the selection the animals were randomly treated with the vehicle or with the study product thirty minutes before being exposed again to the citric acid aerosol. The antitussive activity was assessed for each guinea-pig as the reduction in the number of coughs compared to their previously recorded values. On the other hand, the animals were observed from the time of administration of the product until the end of the experiment for possible sedative effects.

[2] = Observation for possible sedative effects in the treated guinea-pigs; assay type: in vivo, guinea-pig; details: ip
Source text: as §1, with “Br. J. Pharmacol,112:795-800].” left out
The guinea-pigs (250-400 g) were deprived of water and food 30 minutes before any intervention. […] During this period, the animals were observed continuously, the number of coughs was counted and the baseline value was taken as control. […] The antitussive activity was assessed for each guinea-pig as the reduction in the number of coughs compared to their previously recorded values. […]

Compound: CN(C)CCOC(c1ccccc1)c1ccnn1C.O=C(O)CC(O)(CC(=O)O)C(=O)O (racemic) [Product, (±)-5-{α-[2-(dimethylamine)ethoxy]benzyl}-1-methyl-1H pirazole citrate]
- N° of Coughs ± SEM ([1]; 10 mg/kg): 8.7 ± 0.7
- N° of Coughs ± SEM ([1]; 40 mg/kg): 4.3 ± 0.5
- N° of Coughs ± SEM ([1]; 100 mg/kg): 2.8 ± 0.4
- antitussive activity (in words) ([1]; 10, 40 and 100 mg/kg): good antitussive activity which is perfectly dose-related
- inhibition at 10 mg/kg ([1]; Cavia porcellus, 10 mg/kg, inhibition of coughs): 37%
- inhibition at 40 mg/kg ([1]; Cavia porcellus, 40 mg/kg, inhibition of coughs): 71%
- inhibition at 100 mg/kg ([1]; Cavia porcellus, 100 mg/kg, inhibition of coughs): 80%
- SD-50 [1]: 17.6 mg/kg, ip
- SD-50 ([1]; listed as (±)-5-{α-[2(dimethylamine) ethoxy]benzyl}-1-methyl-1H-pirazole citrate): 17.6 mg/kg
- sedative effect ([2]; 10, 40 and 100 mg/kg): does not produce any sedative effect
- sedative effect ([2]; maximum dose used 100 mg/kg): no sedative effect
